For data set [1], the target named is T1, PLK4 (h) (Homo sapiens, UniProt O00444).
T1 sequence (O00444 1-970): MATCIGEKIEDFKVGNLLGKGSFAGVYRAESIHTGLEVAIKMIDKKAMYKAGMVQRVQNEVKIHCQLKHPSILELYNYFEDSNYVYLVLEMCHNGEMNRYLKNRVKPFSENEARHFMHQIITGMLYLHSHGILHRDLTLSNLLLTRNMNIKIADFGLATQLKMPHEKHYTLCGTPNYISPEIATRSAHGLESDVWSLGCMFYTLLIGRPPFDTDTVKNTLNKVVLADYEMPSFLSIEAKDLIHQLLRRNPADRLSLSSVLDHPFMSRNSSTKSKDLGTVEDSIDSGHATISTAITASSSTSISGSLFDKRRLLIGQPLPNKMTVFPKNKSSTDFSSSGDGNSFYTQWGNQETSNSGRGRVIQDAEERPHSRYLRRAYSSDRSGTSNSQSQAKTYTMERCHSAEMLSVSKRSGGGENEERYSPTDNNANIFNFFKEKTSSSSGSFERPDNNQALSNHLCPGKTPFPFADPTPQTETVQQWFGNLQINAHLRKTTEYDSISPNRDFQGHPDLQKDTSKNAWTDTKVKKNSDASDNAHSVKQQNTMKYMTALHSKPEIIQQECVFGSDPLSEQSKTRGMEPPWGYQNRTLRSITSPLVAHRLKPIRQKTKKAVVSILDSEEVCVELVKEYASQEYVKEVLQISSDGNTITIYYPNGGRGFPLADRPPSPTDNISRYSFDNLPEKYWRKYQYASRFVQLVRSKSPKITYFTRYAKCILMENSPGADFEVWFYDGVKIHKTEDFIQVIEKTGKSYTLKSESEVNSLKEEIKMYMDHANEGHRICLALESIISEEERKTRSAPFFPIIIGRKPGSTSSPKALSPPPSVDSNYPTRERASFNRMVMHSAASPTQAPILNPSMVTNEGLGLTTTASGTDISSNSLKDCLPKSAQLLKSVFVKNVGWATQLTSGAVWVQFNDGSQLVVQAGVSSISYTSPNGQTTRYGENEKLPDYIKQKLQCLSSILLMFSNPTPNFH
In words: PLK-4 human kinase scintillation proximity assay (SPA). The format is biochemical. The settings on record: 1 μM ATP, 60 minutes at r.t., read-out: PLK4 pIC50 (converted). In short, it runs like this:
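Scintillation proximity read-out: EDTA-stopped reactions were captured on streptavidin SPA beads after PLK4 (19 μg/ml) had phosphorylated 10 μM biotin-peptide for 60 min at room temperature, using 1 μM ATP spiked with 2 nM 33P-ATP in pH 8.0 HEPES buffer.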
Background: In a scintillation proximity assay essentially only radioactivity close to the scintillant gives light.

Data set [2] has as its system HCT-116. In words: Cellular proliferation assay (Alamar blue), HCT-116. Format: cell-based. The settings on record: Homo sapiens; HCT-116 cells; 10% FCS; 72 h with compound; Alamar blue 4 h; read-out: pIC50 HCT-116 (converted). The method in brief:
(§1)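 Read-out: resazurin-based Alamar blue fluorescence at 544/590 nm, with dye left 24 h on PC3 and A2780, 6 h on U87-MG and 4 h on HCT-116. Beforehand, cells grew 24 h compound-free, then 72 h with compound, in 10% FCS at 37° C./5% CO2. Values are expressed against untreated controls.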
On the technique in general: Resazurin is reduced to fluorescent resorufin, in cell work by metabolically active cells.

Data set [3] deals with H1299. As to the kind of experiment: Cellular proliferation assay (Alamar blue), H1299. Format: cell-based. The settings on record: Homo sapiens, NCI-H1299, H1299 cells; 10% FCS; 72 h with compound; Alamar blue 4 h; read-out: pIC50 H1299 (converted). In short, it runs like this:
(§2)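 Viable cell number is determined by Alamar blue conversion after cells are treated with compound for 72 hours, following 24 hours of growth without compound in 10% FCS. The effect is calculated against control cells.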

The test system of data set [4] is U87-MG. In words: Cellular proliferation assay (Alamar blue), U87-MG. Format: cell-based. The settings on record: Homo sapiens, U-87 MG; U87-MG cells; 10% FCS; 72 h with compound; Alamar blue 6 h; read-out: pIC50 U87MG (converted). The method in brief: as §1
Data set [5] has as its system A2780. As to the kind of experiment: Cellular proliferation assay (Alamar blue), A2780. Format: cell-based. The note with it: Homo sapiens, A2780, A2780 cells; 10% FCS; 72 h with compound; Alamar blue 24 h; read-out: pIC50 A2780 (converted). In short, it runs like this:
as §1

For data set [6], the system named is PC3. In words: Cellular proliferation assay (Alamar blue), PC3. The format is cell-based. The settings on record: Homo sapiens, PC-3, PC-3 cells; 10% FCS; 72 h with compound; Alamar blue 24 h; read-out: pIC50 PC-3 (converted). The method in brief: as §1
Data set [7] concerns MDA-MB-231. As to the kind of experiment: Cellular proliferation assay (Alamar blue), MDA-MB-231. The format is cell-based. The note with it: Homo sapiens, MDA-MB-231, MDA-MB-231 cells; 10% FCS; 72 h with compound; Alamar blue 24 h; read-out: pIC50 MDA/MB231 (converted). In short, it runs like this:
as §2

`CCOCCOc1ccc2cc1OCC(=O)N(C)CCCN(C)Cc1c[nH]c3ncnc(c13)N2` [Compound 70] registered a melting point of 237.8 °C. The IC50 in data set [1] is 25.1 nM. In addition, the IC50 in data set [2] was 100 nM. Further, in data set [3], the IC50 is 501 nM. For the same compound, the IC50 in data set [4] is 1580 nM. Moreover, the IC50 in data set [5] is 79.4 nM. Besides, the IC50 in data set [6] is 3.98 µM. Moreover, the IC50 in data set [7] is 2.51 µM.

`COc1ccc2cc1OCC(=O)N(C)CCCN(C)Cc1c[nH]c3ncnc(c13)N2` [Compound 7] yielded a melting point of 267.9 °C. In addition, the IC50 in data set [1] is 39.8 nM. The IC50 in data set [2] is 501 nM. In data set [3], the IC50 is 1000 nM. The IC50 in data set [4] is 1260 nM. Moreover, in data set [5], the IC50 was 631 nM. Moreover, the IC50 in data set [6] is 2 µM. Besides, the IC50 in data set [7] was 1.58 µM.

In turn, `CCOCCOc1ccc2cc1OCC(=O)N(C)CCCN(C)Cc1cn(C)c3ncnc(c13)N2` [Compound 81] came in with a melting point of 221 °C. Further, the IC50 in data set [1] was 79.4 nM. Further, in data set [2], the IC50 was 251 nM. For the same compound, the IC50 in data set [3] was 631 nM. In addition, in data set [4], the IC50 is 501 nM. The IC50 in data set [5] is 200 nM. Moreover, the IC50 in data set [6] was above 10 µM. Further, the IC50 in data set [7] is 2 µM.

Consider `CN1CCCN(C)C(=O)COc2cc(ccc2OCCNc2ccc(Cl)cc2)Nc2ncnc3[nH]cc(c23)C1` [Compound 79], for which the melting point came out at 269.3 °C. For the same compound, the IC50 in data set [1] was 100 nM. Besides, the IC50 in data set [2] is 251 nM. The IC50 in data set [3] is 794 nM. In addition, the IC50 in data set [4] is 3160 nM. For the same compound, the IC50 in data set [5] is 200 nM. Further, the IC50 in data set [6] was 3.98 µM. In addition, the IC50 in data set [7] is 5.01 µM.

`COc1ccc(OCCCOc2ccc3cc2OCC(=O)N(C)CCCN(C)Cc2c[nH]c4ncnc(c24)N3)cc1` [Compound 78]: the melting point worked out at 222.2 °C. For the same compound, the IC50 in data set [1] was 50.1 nM. For the same compound, in data set [2], the IC50 is 1260 nM. Moreover, the IC50 in data set [3] was 2510 nM. Further, in data set [4], the IC50 was 3980 nM. Further, the IC50 in data set [5] was 1260 nM. For the same compound, the IC50 in data set [6] was 5.01 µM. Moreover, the IC50 in data set [7] is 6.31 µM.

`CCOCCOc1ccc2cc1OCC(=O)N(C)CCCNCc1c[nH]c3ncnc(c13)N2` [Compound 75] showed a melting point of 237.4 °C. Also, the IC50 in data set [1] was 39.8 nM. The IC50 in data set [2] was 794 nM. Further, in data set [3], the IC50 was above 10000 nM. Moreover, the IC50 in data set [4] is above 10000 nM. In data set [5], the IC50 is 631 nM. Moreover, the IC50 in data set [6] was above 10 µM. In data set [7], the IC50 is above 10 µM.

With `COc1ccc2cc1OCC(=O)N(C)CCN(C)Cc1c[nH]c3ncnc(c13)N2` [Compound 10], the melting point was 249.3 °C. Also, the IC50 in data set [1] is 126 nM. Besides, the IC50 in data set [2] is above 10000 nM. The IC50 in data set [3] is above 10000 nM. In addition, in data set [4], the IC50 was above 10000 nM. In addition, in data set [5], the IC50 was above 10000 nM. For the same compound, the IC50 in data set [6] is above 10 µM. Also, in data set [7], the IC50 is above 10 µM.

The term melting point denotes the temperature, or range, at which the solid turns liquid.

Values taken from US8318731B2, “Pyrrolopyrimidines” (Janssen Pharmaceutica NV, priority 2007, dated 2012).
